Tests used:
Type in all cases: in vivo
[1] = system: Surinam grass (Brachiaria decumbens); experiment: Test B pre/postemergence
How it was run: (§1)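 Following sowing, compounds in a surfactant-bearing non-phytotoxic solvent were applied preemergence; emerged plants 2 to 18 cm high got postemergence treatment concurrently. Evaluation: 13 to 15 days later, greenhouse, 0–100 visual scale.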

[2] = system: barnyardgrass (Echinochloa crus-galli); experiment: Test B pre/postemergence
How it was run: as §1

[3] = system: cocklebur (Xanthium strumarium); experiment: Test B pre/postemergence
How it was run: as §1

corn (Zea mays) = experiment: Test B pre/postemergence
How it was run: as §1

[4] = system: crabgrass (Digitaria sanguinalis); experiment: Test B pre/postemergence
How it was run: as §1

[5] = system: giant foxtail (Setaria faberii); experiment: Test B pre/postemergence
How it was run: as §1

[6] = system: lambsquarters (Chenopodium album); experiment: Test B pre/postemergence
How it was run: as §1

[7] = system: morningglory (Ipomoea coccinea); experiment: Test B pre/postemergence
How it was run: as §1

[8] = system: pigweed (Amaranthus retroflexus); experiment: Test B pre/postemergence
How it was run: as §1

[9] = system: velvetleaf (Abutilon theophrasti); experiment: Test B pre/postemergence
How it was run: as §1

[10] = system: wheat (Triticum aestivum); experiment: Test B pre/postemergence
How it was run: as §1

[11] = system: blackgrass (Alopecurus myosuroides); experiment: Test B postemergence
How it was run: as §1

wild oat (Avena fatua) = experiment: Test B postemergence
How it was run: as §1

[12] = system: barnyardgrass (Echinochloa crus-galli); experiment: Test B flooded paddy test; conditions: Flood, 1000 g ai/ha; scale 0 (no effect) to 100 (complete control)
How it was run: (§2)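 Visual injury scoring (0 = no effect, 100 = complete control) versus controls made 13 to 15 days after treatment in the greenhouse. Test species were grown in flooded paddy to the 2-leaf stage: rice, barnyardgrass, umbrella sedge, duck salad.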

[13] = system: duck salad (Heteranthera limosa); experiment: Test B flooded paddy test; conditions: Flood, 1000 g ai/ha; scale 0 to 100
How it was run: as §2

rice (Oryza sativa) [14] = experiment: Test B flooded paddy test; conditions: Flood, 1000 g ai/ha; scale 0 to 100
How it was run: as §2

[15] = system: umbrella sedge (Cyperus difformis); experiment: Test B flooded paddy test; conditions: Flood, 1000 g ai/ha; scale 0 to 100
How it was run: as §2

[16] = system: barnyardgrass (Echinochloa crus-galli); experiment: Test C flooded paddy test; conditions: Flood
Method: (§3) At the same time, plants selected from these crop and weed species and also winter barley (Hordeum vulgare), blackgrass (Alopecurus myosuroides), canarygrass (Phalaris minor), chickweed (Stellaria media), downy brome (Bromus tectorum), green foxtail (Setaria viridis), Italian ryegrass (Lolium multiflorum), wheat (Triticum aestivum), wild oat (Avena fatua) and windgrass (Apera spica-venti) were treated with postemergence applications of some of the test chemicals formulated in the same manner. Plants ranged in height from 2 to 18 cm (1- to 4-leaf stage) for postemergence treatments. Plant species in the flooded paddy test consisted of rice (Oryza sativa), umbrella sedge (Cyperus difformis), duck salad (Heteranthera limosa) and barnyardgrass (Echinochloa crus-galli) grown to the 2-leaf stage for testing. Treated plants and controls were maintained in a greenhouse for 12 to 14 days, after which time all species were compared to controls and visually evaluated. Plant response ratings, summarized in Table C, are based on a scale of 0 to 100 where 0 is no effect and 100 is complete control. A dash (-) response means no test result.

[17] = system: duck salad (Heteranthera limosa); experiment: Test C flooded paddy test; conditions: Flood, scale 0 to 100
Method: as §3

rice (Oryza sativa) [18] = experiment: Test C flooded paddy test; conditions: Flood, scale 0 to 100
Method: as §3

[19] = system: umbrella sedge (Cyperus difformis); experiment: Test C flooded paddy test; conditions: Flood, scale 0 to 100
Method: as §3

[20] = Postemergence, 125 g ai/ha, scale 0 to 100 (0 no effect, 100 complete control)
[21] = Postemergence, 500 g ai/ha, scale 0 to 100
[22] = Preemergence, 125 g ai/ha, scale 0 to 100 (0 no effect, 100 complete control)
[23] = Preemergence, 500 g ai/ha, scale 0 to 100 (0 no effect, 100 complete control)
[24] = 125 g ai/ha, scale 0 to 100 (0 no effect, 100 complete control)

CC(C)OC(=O)c1nc(C2CC2)nc(N)c1Br [Compound 14]
Surinam Grass plant response rating [1, 20]: 10 | Plant response rating, Surinam Grass [1, 21]: 50 | Plant response rating, Surinam Grass [1, 22]: 40 | Surinam Grass plant response rating [1, 23]: 80 | Barnyardgrass plant response rating [2, 20]: 30 | Plant response rating, Barnyardgrass [2, 21]: 90 | Plant response rating, Barnyardgrass [2, 22]: 10 | Barnyardgrass plant response rating [2, 23]: 80 | Cocklebur plant response rating [3, 20]: 50 | Plant response rating, Cocklebur [3, 21]: 70 | Plant response rating, Cocklebur [3, 22]: 60 | Cocklebur plant response rating [3, 23]: 80 | Corn plant response rating (corn (Zea mays); [20]): 30 | Plant response rating, Corn (corn (Zea mays); [21]): 70 | Plant response rating, Corn (corn (Zea mays); [22]): 0 | Corn plant response rating (corn (Zea mays); [23]): 70 | Crabgrass plant response rating [4, 20]: 10 | Plant response rating, Crabgrass [4, 21]: 30 | Plant response rating, Crabgrass [4, 22]: 10 | Crabgrass plant response rating [4, 23]: 80 | Foxtail, Giant plant response rating [5, 20]: 20 | Plant response rating, Foxtail, Giant [5, 21]: 50 | Plant response rating, Foxtail, Giant [5, 22]: 30 | Foxtail, Giant plant response rating [5, 23]: 80 | Lambsquarters plant response rating [6, 20]: 100 | Plant response rating, Lambsquarters [6, 21]: 100 | Plant response rating, Lambsquarters [6, 22]: 90 | Lambsquarters plant response rating [6, 23]: 100 | Morningglory plant response rating [7, 20]: 100 | Plant response rating, Morningglory [7, 21]: 100 | Plant response rating, Morningglory [7, 22]: 70 | Morningglory plant response rating [7, 23]: 100 | Pigweed plant response rating [8, 20]: 80 | Plant response rating, Pigweed [8, 21]: 90 | Plant response rating, Pigweed [8, 22]: 80 | Pigweed plant response rating [8, 23]: 90 | Velvetleaf plant response rating [9, 20]: 50 | Plant response rating, Velvetleaf [9, 21]: 70 | Plant response rating, Velvetleaf [9, 22]: 60 | Velvetleaf plant response rating [9, 23]: 80 | Wheat plant response rating [10, 20]: 20 | Plant response rating, Wheat [10, 21]: 50 | Plant response rating, Wheat [10, 22]: 40 | Wheat plant response rating [10, 23]: 50 | Blackgrass plant response rating [11, 24]: 30 | Plant response rating, Blackgrass ([11]; 500 g ai/ha, scale 0 to 100): 60 | Oat, Wild plant response rating (wild oat (Avena fatua); [24]): 20 | Plant response rating, Oat, Wild (wild oat (Avena fatua); 500 g ai/ha, scale 0 to 100): 70 | Plant response rating, Barnyardgrass [12]: 80 | Plant response rating, Ducksalad [13]: 80 | Plant response rating, Rice (rice (Oryza sativa) [14]): 20 | Plant response rating, Sedge, Umbrella [15]: 50 | Plant response rating, Barnyardgrass ([16]; 62 g ai/ha, scale 0 to 100): 0 | Plant response rating, Barnyardgrass ([16]; 125 g ai/ha, scale 0 to 100): 0 | Plant response rating, Barnyardgrass ([16]; 250 g ai/ha, scale 0 to 100): 0 | Plant response rating, Barnyardgrass ([16]; 500 g ai/ha, scale 0 to 100 (0 no effect, 100 complete control)): 45 | Plant response rating, Ducksalad ([17]; 62 g ai/ha): 0 | Plant response rating, Ducksalad ([17]; 125 g ai/ha): 40 | Plant response rating, Ducksalad ([17]; 250 g ai/ha): 45 | Plant response rating, Ducksalad ([17]; 500 g ai/ha): 55 | Plant response rating, Rice (rice (Oryza sativa) [18]; 62 g ai/ha): 0 | Plant response rating, Rice (rice (Oryza sativa) [18]; 125 g ai/ha): 0 | Plant response rating, Rice (rice (Oryza sativa) [18]; 250 g ai/ha): 0 | Plant response rating, Rice (rice (Oryza sativa) [18]; 500 g ai/ha): 0 | Plant response rating, Sedge, Umbrella ([19]; 62 g ai/ha): 0 | Plant response rating, Sedge, Umbrella ([19]; 125 g ai/ha): 0 | Plant response rating, Sedge, Umbrella ([19]; 250 g ai/ha): 0 | Plant response rating, Sedge, Umbrella ([19]; 500 g ai/ha): 30

Reference: patent US8802597B2, “Herbicidal pyrimidines” (E I du Pont de Nemours and Company, priority 2003, dated 2014)
